The conditions of series [1]: Crystal; DSC.
A short description of series [2]: Molar enthalpy of transition or fusion. Conditions: Crystal; DSC.

Structures are written as SMILES. Numbers after ± are expanded uncertainties.

Regarding `C=NCC#N` [methyleneaminoacetonitrile], in series [1], the Triple point temperature turned out to be 402.15 ± 1 K. Also, in series [2], the “Molar enthalpy of transition or fusion” value stood at 2.55 ± 0.0884 kcal/mol.
